Drawing on US9452997B2, “Piperidine and piperazine derivatives as autotaxin inhibitors” (Merck Patent GmbH, priority 2009, dated 2016), this text covers IC50 for 24 molecules.

The assay deals with T1, Recombinant autotaxin (Homo sapiens, UniProt Q13822).
T1 construct: made in house; host or cells: Hi5 insect cells (baculovirus)
Description: Autotaxin assay (Amplex Red, LPC substrate). Particulars: recombinant autotaxin, LPC substrate, Amplex Red detection; values given as upper bounds. In kind it is biochemical. As for the experimental part: Autotaxin activity is measured indirectly by means of Amplex Red Reagent. In this course, Amplex Red is measured as fluorogenic indicator for generated H2O2. Autotaxin converts substrate lysophosphatidylcholine (LPC) to phosphocholine and lysophosphatidylic acid (LPA). After the conversion phosphocholine is reacted with alkaline phosphatase to obtain inorganic phosphate and choline. During the next step choline is oxidized with choline oxidase to yield betaine, whereby H2O2 is generated. H2O2 reacts with Amplex Red Reagent in the presence of peroxidase (Horseradish peroxidase) in an 1:1 stochiometry and yields highly fluorescent resorufin. The generated fluorescence is measured in a reaction-dependent kinetic mode in order to enable subtraction of fluorescence signals of possible other fluorescent compounds that are not part of the reaction from total measured fluorescence.
1.5 μl of a standard solution or of the compounds of the invention are dissolved in 20 mM Hepes pH 7.2 with maximally 7.7% DMSO in individual concentrations. The resulting solution is pre-incubated together with 10 μl (16 ng) of highly purified recombinant autotaxin in a black 384-hole microtiter plate for 30 min at 22° C.
Thereafter, the reaction is started through the addition of 5 μL-a-lysophosphatidyl-choline (LPC), whereby the final concentration of LPC is 75 μM. The mixture is incubated for 90 min. at 37° C. After the incubation Amplex Red Reagent, peroxidase (Horseradish peroxidase) and choline oxidase are added. The fluorescence is immediately measured at a wavelength of 612 nm with an excitation wavelength of 485 nm in a “Tecan Ultra multimode” fluorescence reader. The activity of autotaxin is indirectly calculated via the amount of detected generated H2O2.
For IC50 analysis, ten serial 1:3 dilutions starting at 30 μM for each compound were run in duplicates.
IC50 values were calculated on normalized data. For normalization, control wells were added to each assay plate and the signal of uninhibited control wells was set to 100%, whereas the signal inhibited by 500 μM C14 LPA, (Avanti Polar Lipids, Cat#857120P) was set to 0%. Curves were fitted and IC50 values calculated by the following model using proprietory analysis software: Y=Bottom+(100−Bottom)/(1+10^((Log IC50−X)*HillSlope)) Where X is the logarithm of concentration. Y is the response; Y starts at Bottom and goes to Top with a sigmoid shape. Material
Microtiter plate: PS-Microplate, 384-hole, small volume, black Corning, Cat#3677
Protein: Recombinant autotaxin (baculoviral Hi5 expression)
Substrate: L-a-lysophosphatidyl choline (chicken egg); Avanti Polar Lipids #830071P
Standard: C14 LPA, Avanti Polar Lipids, Cat#857120P
Detection Reagent: Amplex Red Reagent; Invitrogen #A12222; dissolved in 1.923 ml of DMSO peroxidase Type VI-A (horseradish), Sigma #P6782; dissolved in 7.45 ml of test buffer, Choline Oxidase; Sigma #C5896; dissolved in 2.47 ml test buffer
Detection Reagent Mix: 1:100 dilution of Amplex Red Regent in test buffer
Test buffer: 200 mM Tris-HCl, Merck, Cat #1.08219, pH 7.9; 0.1% BSA, lipid free, Roche Cat#775835
What is called IC50 is the midpoint of a concentration-inhibition curve. `O=C(OCc1cc(Cl)cc(Cl)c1)N1CCC2(CC1)CCN(C(=O)c1ccc3[nH]nnc3c1)CC2` [Compound 29, 9-(1H-Benzotriazole-5-carbonyl)-3,9-diaza-spiro[5.5]undecane-3-carboxylic acid 3,5-dichloro-benzyl ester]: the concentration for half-maximal inhibition (IC50) was less than 30 µM.

Consider `O=C(NCCc1cccnc1)C1CC(=O)N(C2CCN(C(=O)OCc3cc(Cl)cc(Cl)c3)CC2)C1` (stereo not drawn) [Compound 30, 4-[2-Oxo-4-(2-pyridin-3-yl-ethylcarbamoyl)-pyrrolidin-1-yl]-piperidine-1-carboxylic acid 3,5-dichloro-benzyl ester], for which the IC50 was less than 30 µM.

Regarding `O=C(Nc1cc(Cl)cc(Cl)c1)N1CCN(C2CCN(C(=O)c3ccc4[nH]nnc4c3)CC2)CC1` [Compound 31, 4-[1-(1H-Benzotriazole-5-carbonyl)-piperidin-4-yl]-piperazine-1-carboxylic acid (3,5-dichloro-phenyl)-amide], the half-maximal inhibitory concentration (IC50) is less than 30 µM.

In the case of `O=C(CCc1ccc(C(F)(F)F)cc1)N1CCN(C2CCN(C(=O)c3ccc4[nH]nnc4c3)CC2)CC1` [Compound 32, 1-{4-[1-(1H-Benzotriazole-5-carbonyl)-piperidin-4-yl]-piperazin-1-yl}-3-(4-trifluoromethyl-phenyl)-propan-1-one], the half-inhibitory concentration (IC50) was less than 1 µM.

Regarding `O=C(CCc1ccc(C(F)(F)F)cc1)N1CCN(C2CCN(C(=O)c3ccc4[nH]c(=O)oc4c3)CC2)CC1` [Compound 33, 6-(4-{4-[3-(4-Trifluoromethyl-phenyl)-propionyl]-piperazin-1-yl}-piperidine-1-carbonyl)-3H-benzooxazol-2-one], the half-maximal inhibitory concentration (IC50) was less than 1 µM.

Regarding `O=C(OCc1ccc(C(F)(F)F)cc1)N1CCN(C2CCN(C(=O)c3ccc4[nH]nnc4c3)CC2)CC1` [Compound 34, 4-[1-(1H-Benzotriazole-5-carbonyl)-piperidin-4-yl]-piperazine-1-carboxylic acid 4-trifluoromethyl-benzyl ester], the IC50 is less than 1 µM.

On to `O=C(OCc1cc(C(F)(F)F)cc(C(F)(F)F)c1)N1CCN(C2CCN(C(=O)c3ccc4[nH]nnc4c3)CC2)CC1` [Compound 35, 4-[1-(1H-Benzotriazole-5-carbonyl)-piperidin-4-yl]-piperazine-1-carboxylic acid 3,5-bis-trifluoromethyl-benzyl ester], for which the IC50 was less than 1 µM.

Regarding `O=C(OCc1ccc(Cl)cc1F)N1CCN(C2CCN(C(=O)c3ccc4[nH]nnc4c3)CC2)CC1` [Compound 36, 4-[1-(1H-Benzotriazole-5-carbonyl)-piperidin-4-yl]-piperazine-1-carboxylic acid 4-chloro-2-fluoro-benzyl ester], the 50% inhibitory concentration (IC50) is less than 1 µM.

Consider `O=C(OCc1ccc(SC(F)(F)F)cc1)N1CCN(C2CCN(C(=O)c3ccc4[nH]nnc4c3)CC2)CC1` [Compound 37, 4-[1-(1H-Benzotriazole-5-carbonyl)-piperidin-4-yl]-piperazine-1-carboxylic acid 4-trifluoromethylsulfanyl-benzyl ester], for which the half-maximal inhibitory concentration (IC50) is less than 1 µM.

`COc1ccc(Cl)cc1COC(=O)N1CCN(C2CCN(C(=O)c3ccc4[nH]nnc4c3)CC2)CC1` [Compound 38, 4-[1-(1H-Benzotriazole-5-carbonyl)-piperidin-4-yl]-piperazine-1-carboxylic acid 5-chloro-2-methoxy-benzyl ester]: the half-inhibitory concentration (IC50) is less than 1 µM.

Turning to `O=C(OCc1ccccc1Cl)N1CCN(C2CCN(C(=O)c3ccc4[nH]nnc4c3)CC2)CC1` [Compound 39, 4-[1-(1H-Benzotriazole-5-carbonyl)-piperidin-4-yl]-piperazine-1-carboxylic acid 2-chloro-benzyl ester], the IC50 was less than 10 µM.

With `Cc1ccc(COC(=O)N2CCN(C3CCN(C(=O)c4ccc5[nH]nnc5c4)CC3)CC2)cc1` [Compound 40, 4-[1-(1H-Benzotriazole-5-carbonyl)-piperidin-4-yl]-piperazine-1-carboxylic acid 4-methyl-benzyl ester], the concentration for half-maximal inhibition (IC50) is less than 10 µM.

As for `O=C(OCc1cccc(Cl)c1)N1CCN(C2CCN(C(=O)c3ccc4[nH]nnc4c3)CC2)CC1` [Compound 41, 4-[1-(1H-Benzotriazole-5-carbonyl)-piperidin-4-yl]-piperazine-1-carboxylic acid 3-chloro-benzyl ester], the half-inhibitory concentration (IC50) is less than 1 µM.

As to `O=C(OCc1ccc(Cl)cc1)N1CCN(C2CCN(C(=O)c3ccc4[nH]nnc4c3)CC2)CC1` [Compound 42, 4-[1-(1H-Benzotriazole-5-carbonyl)-piperidin-4-yl]-piperazine-1-carboxylic acid 4-chloro-benzyl ester], the IC50 is less than 1 µM.

In the case of `CC(C)c1ccc(COC(=O)N2CCN(C3CCN(C(=O)c4ccc5[nH]nnc5c4)CC3)CC2)cc1` [Compound 43, 4-[1-(1H-Benzotriazole-5-carbonyl)-piperidin-4-yl]-piperazine-1-carboxylic acid 4-isopropyl-benzyl ester], the IC50 was less than 1 µM.

Consider `O=C(OCc1ccc(Cl)c(Cl)c1)N1CCN(C2CCN(C(=O)c3ccc4[nH]nnc4c3)CC2)CC1` [Compound 45, 4-[1-(1H-Benzotriazole-5-carbonyl)-piperidin-4-yl]-piperazine-1-carboxylic acid 3,4-dichloro-benzyl ester], for which the half-inhibitory concentration (IC50) is less than 1 µM.

For `O=C(OCc1ccc(Cl)cc1Cl)N1CCN(C2CCN(C(=O)c3ccc4[nH]nnc4c3)CC2)CC1` [Compound 46, 4-[1-(1H-Benzotriazole-5-carbonyl)-piperidin-4-yl]-piperazine-1-carboxylic acid 2,4-dichloro-benzyl ester], the IC50 was less than 1 µM.

Consider `O=C(OCc1ccc(OC(F)(F)F)cc1)N1CCN(C2CCN(C(=O)c3ccc4[nH]nnc4c3)CC2)CC1` [Compound 47, 4-[1-(1H-Benzotriazole-5-carbonyl)-piperidin-4-yl]-piperazine-1-carboxylic acid 4-trifluoromethoxy-benzyl ester], for which the IC50 is less than 1 µM.

In the case of `Cc1nc(-c2ccc(C(F)(F)F)cc2)sc1C(=O)N1CCN(C2CCN(C(=O)c3ccc4[nH]nnc4c3)CC2)CC1` [Compound 48, (1H-Benzotriazol-5-yl)-(4-{4-[4-methyl-2-(4-trifluoromethyl-phenyl)-thiazole-5-carbonyl]-piperazin-1-yl}-piperidin-1-yl)-methanone], the IC50 was less than 10 µM.

For the molecule `O=C(CCc1ccc(C(F)(F)F)cc1)N1CCC(N2CCN(C(=O)c3ccc4[nH]c(=O)oc4c3)CC2)CC1` [Compound 49, 6-(4-{1-[3-(4-Trifluoromethyl-phenyl)-propionyl]-piperidin-4-yl}-piperazine-1-carbonyl)-3H-benzooxazol-2-one], the half-inhibitory concentration (IC50) is less than 1 µM.

For the molecule `O=C(CCc1ccc(C(F)(F)F)cc1)N1CCC(N2CCN(C(=O)c3ccc4[nH]nnc4c3)CC2)CC1` [Compound 50, 1-{4-[4-(1H-Benzotriazole-5-carbonyl)-piperazin-1-yl]-piperidin-1-yl}-3-(4-trifluoromethyl-phenyl)-propan-1-one], the IC50 was less than 10 µM.

With `O=C(OCc1cc(Cl)cc(Cl)c1)N1CCC(NC2CCN(C(=O)c3ccc4[nH]nnc4c3)CC2)C1` (stereo not drawn) [Compound 51, 3-[1-(1H-Benzotriazole-5-carbonyl)-piperidin-4-ylamino]-pyrrolidine-1-carboxylic acid 3,5-dichloro-benzyl ester], the concentration for half-maximal inhibition (IC50) was less than 1 µM.

On to `O=C(c1ccc2[nH]nnc2c1)N1CCC(N2CCN(C(=O)c3nc4cc(C(F)(F)F)ccc4[nH]3)CC2)CC1` [Compound 52, (1H-Benzotriazol-5-yl)-{4-[4-(5-trifluoromethyl-1H-benzoimidazole-2-carbonyl)-piperazin-1-yl]-piperidin-1-yl}-methanone], for which the half-maximal inhibitory concentration (IC50) was less than 10 µM.

Take `O=C(NCCc1c[nH]cn1)C1CC(=O)N(C2CCN(C(=O)OCc3cc(Cl)cc(Cl)c3)CC2)C1` (stereo not drawn) [Compound 53, 4-{4-[2-(1H-Imidazol-4-yl)-ethylcarbamoyl]-2-oxo-pyrrolidin-1-yl}-piperidine-1-carboxylic acid 3,5-dichloro-benzyl ester]: the IC50 is less than 10 µM.
